Reference: article PMC5025651, “Reprofiled anthelmintics abate hypervirulent stationary-phase Clostridium difficile” (Scientific Reports, 2016)
Converted amounts (≈) assume the structure as drawn. Counter-ions that a name gives are not always drawn. Like-named read-outs stand apart in the source and are kept apart here.

Legend:
[1] = system: C. difficile isolate 20121190 (ribotype 126); experiment: MIC by broth microdilution; assay type: cell-based, Clostridium difficile; settings: Clostridioides difficile
[2] = system: C. difficile isolate 20110961 (ribotype A12); experiment: MIC by broth microdilution; assay type: cell-based, Clostridium difficile; settings: Clostridioides difficile
[3] = system: C. difficile isolate 20111163 (ribotype 024); experiment: MIC by broth microdilution; assay type: cell-based, Clostridium difficile; settings: Clostridioides difficile
P. aeruginosa PAO1 = experiment: MIC by broth microdilution; assay type: cell-based; settings: Pseudomonas aeruginosa
[4] = ruminants; cited from earlier work
[5] = system: C. difficile strain 630 (CD630, ATCC BAA-1382-FZ, ribotype 012); experiment: MIC by broth microdilution; assay type: cell-based, Clostridium difficile
HEK 293T/17 cells = experiment: In vitro cytotoxicity, MTS assay; assay type: cell-based, human; settings: HEK 293T/17, MTS; for in vitro toxicity compared with niclosamide (in words): 0.125–32 μg/mL
Procedure: (§1) Cell lines Hep G2 [HEPG2] (ATCC® HB-8065^TM) and 293T/17 [HEK 293T/17] (ATCC® CRL-11268^TM) were purchased from ATCC and cultured according to manufacturer’s instructions. HEPG2 or HEK 293T/17 cells were cultured in 96-well plates, and incubated at 37 °C in a 5% CO2 humidifying chamber for 24 h. Cells were then treated with test compounds at concentrations ranging from 0.125–32 μg/mL, and an MTS assay was performed at 16-h post-incubation at 37 °C in a 5% CO2 humidifying chamber, using the CellTiter 96 aqueous non-radioactive cell proliferation assay kit (Promega, Madison, WI, USA) per manufacturer’s instructions. MTS assays were performed in duplicate.

HepG2 cells = experiment: In vitro cytotoxicity, MTS assay; assay type: cell-based, human; settings: for in vitro toxicity compared with niclosamide (in words): 0.125–32 μg/mL
Procedure: as §1

Sheep red blood cells = experiment: Hemolysis assay; assay type: cell-based; settings: tested at 32 μg/mL, sheep erythrocytes
Outline: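 PBS-washed sheep erythrocytes (3% suspension, pH 7.4) were exposed to compound at 32 μg/mL final for 1 h at 37 °C. After centrifugation, supernatant absorbance at 540 nm was read against 1% Triton X-100 (full lysis) and 0.5% DMSO in PBS. Triplicate.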

C. difficile strain 4118 = experiment: Serial passage experiments (resistance development); assay type: cell-based, Clostridium difficile; settings: after 21 serial passages of CD4118 at 0.5 × MIC
Procedure: C. difficile strain 4118 serial passages were performed in BHIS containing 0.03% L-cysteine, using the broth microdilution method. The MIC for each compound was first determined according to the procedure detailed above. […] Serial passage experiments were performed in duplicate.

[6] = system: panel of obligate aerobes, facultative anaerobes and obligate anaerobes; experiment: Antibacterial spectrum, MIC against a panel of bacteria; assay type: cell-based; settings: ratio of MIC values
[7] = isolate 20121190, ribotype 126, duplicate, read-out: MIC
[8] = isolate 20110961, ribotype A12, duplicate, read-out: MIC
[9] = isolate 20111163, ribotype 024, duplicate, read-out: MIC
[10] = P. aeruginosa PAO1, CAMHB, aerobic, duplicate, read-out: MIC

Structure (SMILES)	MIC [1, 7] [µg/mL]	MIC [2, 8] [µg/mL]	MIC [3, 9] [µg/mL]	MIC (P. aeruginosa PAO1; [10]) [µg/mL]	excreted unchanged in the feces [4] [%]	MIC C. difficile 630 ([5]; BHIS broth, anaerobic, 20–24 h, n = 2) [µg/mL]	decrease in MIC relative to 5g ([5]; CD630 and CD4118 (Table 2)) [fold]	MIC ([5]; Clostridioides difficile, ATCCBAA1382, BHIS broth, anaerobic, 20–24 h, n = 2) [µg/mL]	in vitro toxicity compared with niclosamide (in words) (HEK 293T/17 cells)	in vitro toxicity compared with niclosamide (in words) (HepG2 cells; HepG2, MTS)	rupture of red blood cells (in words) (Sheep red blood cells)	final MIC relative to initial (pre-passage) MIC (C. difficile strain 4118)	MIC [1] [µg/mL]	concentration with no apparent effect on cell viability (HEK 293T/17 cells; 16 h) [ng/mL]	no-effect concentration on mammalian cell viability relative to MIC values against C. difficile (HepG2 cells; 8 μg/mL, HepG2 and HEK 293T/17) [fold]	concentration with no apparent effect on cell viability (HepG2 cells; HepG2, MTS, 16 h) [ng/mL]	MIC [2] [µg/mL]	MIC [3] [µg/mL]	MIC (P. aeruginosa PAO1; PAO1) [µg/mL]	selectivity for C. difficile over Bifidobacterium/Lactobacillus strains and Gram-negative gut commensals (Bacteroides species) [6] [fold]
Cc1cc(C(C#N)c2ccc(Cl)cc2)c(Cl)cc1NC(=O)c1cc(I)cc(I)c1O (stereo not drawn) [Closantel]	0.25 (≈ 0.377 µM)	0.25 (≈ 0.377 µM)	0.13 to 0.25 (≈ 0.196 to 0.377 µM)	> 32	≤ 90	–	–	–	–	–	–	–	–	–	–	–	–	–	–	–
O=C(Nc1ccc(Oc2ccc(Cl)cc2)cc1)c1cc(Cl)cc(Cl)c1O [Compound 8]	0.25 (≈ 0.612 µM)	0.13 (≈ 0.318 µM)	0.13 (≈ 0.318 µM)	> 32	–	0.03 (≈ 0.0734 µM)	4	0.03 (≈ 0.0734 µM)	lower in vitro toxicities	lower in vitro toxicities	did not cause rupture of red blood cells	–	–	–	–	–	–	–	–	–
Cc1ncc([N+](=O)[O-])n1CCO [Metronidazole, metronidazole]	0.13 (≈ 0.76 µM)	0.25 (≈ 1.46 µM)	0.13 (≈ 0.76 µM)	> 32	–	–	–	–	–	–	–	~ 2 fold	–	–	–	–	–	–	–	–
O=C(Nc1ccc(Oc2ccc(Cl)cc2)c(Cl)c1)c1cc(I)cc(I)c1O [Rafoxanide, rafoxanide]	–	–	–	–	–	–	–	–	lower in vitro toxicities	lower in vitro toxicities	did not cause rupture of red blood cells	–	0.13 (≈ 0.208 µM)	≥ 8000	≥ 64	≥ 8000	0.06 (≈ 0.0958 µM)	0.06 (≈ 0.0958 µM)	> 32	≥ 32
CN[C@H](CC(C)C)C(=O)N[C@H]1C(=O)N[C@@H](CC(N)=O)C(=O)N[C@H]2C(=O)N[C@H]3C(=O)N[C@H](C(=O)N[C@H](C(=O)O)c4cc(O)cc(O)c4-c4cc3ccc4O)[C@H](O)c3ccc(c(Cl)c3)Oc3cc2cc(c3O[C@@H]2O[C@H](CO)[C@@H](O)[C@H](O)[C@H]2O[C@H]2C[C@](C)(N)[C@H](O)[C@H](C)O2)Oc2ccc(cc2Cl)[C@H]1O [Vancomycin, vancomycin hydrochloride hydrate]	0.5	1	1	> 32	–	–	–	–	–	–	–	~ 2 fold	–	–	–	–	–	–	–	–
